Test results reported in patent publication US12492189B2, “Solid forms of an HIV capsid inhibitor” (Gilead Sciences, Inc., priority 2017, dated 2025).

Key:
[1] = Pharmacokinetic profile after subcutaneous dosing of formulations in dogs (Formulation Examples A-D); assay type: in vivo; settings: solution in 10% ethanol, 13% water, 6 mg/kg
Procedure: The suspension was administered to dogs subcutaneously at a dose of 6 mg/kg and the pharmacokinetic (PK) profile was determined.
The solution was administered to dogs subcutaneously at a dose of 6 mg/kg and the pharmacokinetic (PK) profile was determined.
Subjects were orally dosed with this formulation at 6 mg/kg. […] The solution was administered to dogs subcutaneously at a dose of 6 mg/kg and the pharmacokinetic (PK) profile was determined.

[2] = pKa of Compound 1; assay type: physicochemical
Excerpt: (§1) In solution, the two atropisomers coexist in the ratio of about 1:5 to 1:8 (Isomer A:Isomer B), depending on temperatures and pH.

[3] = Test C: Pharmacokinetic analysis following intravenous administration to Sprague-Dawley rats; assay type: in vivo
Excerpt: (§2) Pharmacokinetic Analysis Following Intravenous Administration to Sprague-Dawley Rats and Beagle Dogs and Cynomolgous Monkeys
All IV formulations were in solution.
(§3) Each rat IV dosing group consisted of 3 male SD rats. […] The animals were fasted overnight prior to dose administration and up to 4 hr after dosing. Each dog IV dosing group consisted of 3 male, naïve beagle dogs. At dosing, the animals weighed ˜10-12 kg. The animals were fasted overnight prior to dose administration and up to 2 hr after dosing.
(§4) For the IV infusion group, the test compound was administered by intravenous infusion over 30 minutes. The rate of infusion was adjusted according to the body weight of each animal to deliver a dose of 1 mg/kg at 2 mL/kg.
(§5) Serial venous blood samples (approximately 0.4 mL each for rat and 1.0 mL for dog) were taken at specified time points after dosing from each animal. The blood samples were collected into Vacutainer™ tubes (Becton-Disckinson Corp, New Jersey, USA) containing EDTA as the anti-coagulant and were immediately placed on wet ice pending centrifugation for plasma. Centrifugation began within 1 hour of collection. All samples were placed into 96-well tubes and maintained on dry ice prior to storage at approximately −70° C.
(§6) An LC/MS/MS method was used to measure the concentration of test compounds in plasma.
(§7) Non-compartmental pharmacokinetic analysis was performed on the plasma concentration-time data.

[4] = Test C: Pharmacokinetic analysis following intravenous administration to beagle dogs; assay type: in vivo
Excerpt: as §2
All IV formulations were in solution.
as §3, §4, §5, §6, §7

[5] = system: Human Liver Hepatocytes; test: Test D: Metabolic Stability in Cultured Human Liver Hepatocytes; assay type: in vitro ADME
Procedure: Test D. Metabolic Stability in Cultured Human Liver Hepatocytes
The final hepatocyte concentration was 1 million cells/mL. The hepatocyte/compound reaction mixture was dissolved in InVitroGRO™ KHB buffer (catalog #Z99074, BioreclamationIVT, Inc., Baltimore, MD) at pH 7.4. The incubations were performed in duplicate. A cell free control and a positive control were included in the incubations. The incubations were carried out with gentle shaking in a 37° C. incubator under a humid atmosphere of 95% air/5% CO2 (v/v). Aliquots (100 mL) were removed after 0, 1, 3, and 6 hours and added to 200 mL quenching solution that comprised 0.1% (v/v) TFA in 5% water/95% acetonitrile (v/v). The samples were placed on a shaker for 10 min, followed by centrifugation at 3000 g for 30 min. The samples of the supernatant were analyzed on a Dionex HPLC/PerkinElmer Flow Scintillation Analyzer as described below.
The column was a Phenomenex Synergi fusion RP (150×4.6 mm, 4 mm) maintained at 32 degrees Celsius. Mobile Phase A consisted of 0.1% (v/v) TFA in 99% water/1% acetonitrile (v/v). Mobile Phase B consisted of 0.1% (v/v) TFA in 5% water/95% acetonitrile (v/v). The flow rate was 1 mL/min using a sample injection volume of 100 mL.
Metabolic stability was determined by measuring the change in relative abundance of metabolites and parent over time and calculating from it the rate of disappearance of the parent compound. The stability data was utilized to calculate predicted human hepatic clearance values according to methods known in the art.

[6] = system: HIV-IIIb; test: Test A: Antiviral Assay in MT4 Cells; assay type: cell-based, HIV-1
Procedure: 1 mL Aliquots of MT4 cells were pre-infected for 3 hours at 37° C. with 25 μL of cell growth medium (mock-infected) or a fresh 1:250 dilution of an HIV-IIIb concentrated ABI stock (0.004 m.o.i.). Infected and uninfected cells were diluted in cell growth media and 35 μL (2000 cells) was added to each well of the assay plates.
Assay plates were then maintained in a humidified, 5% CO2 incubator at 37° C. After 5 days of incubation, 25 μL of 2× concentrated CellTiter-Glo™ Reagent (catalog #G7573, Promega Biosciences, Inc., Madison, WI) was added to each well of the assay plate. Cell lysis was carried out by incubating at room temperature for 10 minutes and then chemiluminescence was read using an Envision plate reader (PerkinElmer).

[7] = Atropisomer equilibrium and interconversion in solution; assay type: physicochemical
Excerpt: as §1

Row | plasma concentration of Compound 1 at day 28 ([1]; 77% PEG 200 (200 mg/mL) with 1.2 molar equivalent NaOH (in situ sodium salt), FIG. 29) | plasma concentration of Compound 1 at day 28 ([1]; 77% glycofurol (200 mg/mL) with 1.2 molar equivalent NaOH (in situ sodium salt), FIG. 30) | pKa ([2]; weak acid, at sulfonamide) | pKa ([2]; weak base, at pyridine) | times longer in vivo terminal half-life in rat ([3]; relative to compound A) | times lower in vivo clearance in rat ([3]; relative to compound A) | times longer in vivo terminal half-life in rat ([3]; relative to compound B) | times lower in vivo clearance in rat ([3]; relative to compound B) | times longer in vivo terminal half-life in dog ([4]; relative to compound A) | times lower in vivo clearance in dog ([4]; relative to compound A) | times longer in vivo terminal half-life in dog ([4]; relative to compound B) | times lower in vivo clearance in dog ([4]; relative to compound B) | Predicted Human Hepatic Clearance ([5]; calculated from stability in pooled cryopreserved human hepatocytes, […], up to 6 hours) | times more stable in human hepatocytes (lower predicted hepatic clearance) ([5]; relative to compound A) | times more stable in human hepatocytes (lower predicted hepatic clearance) ([5]; relative to compound B) | half-life ([7]; in solution at 37° C., read-out: t½ of re-equilibration of separated atropisomers) | rotational energy barrier ([7]; rotation along one of the C—C bonds (atropisomers)) | EC50 ([6]; Human immunodeficiency virus 1, IIIB, MT4, 120 h) | Compound | times more potent in HIV antiviral assay ([6]; relative to compound A) | times more potent in HIV antiviral assay ([6]; relative to compound B)
1 | measurable | measurable | 6.7 | < 1 | about 14 times | about 10 times | about 9 times | about 8.6 times | about 5 times | about 3 times | about 4 times | about 4 times | 0.17 mL/min/kg | about 9 times | about 4 times | 1 to 2 h | about 24 kcal/mol | – | CC(C)(C#Cc1ccc(-c2ccc(Cl)c3c(NS(C)(=O)=O)nn(CC(F)(F)F)c23)c([C@H](Cc2cc(F)cc(F)c2)NC(=O)Cn2nc(C(F)(F)F)c3c2C(F)(F)[C@@H]2C[C@H]32)n1)S(C)(=O)=O [Compound 1, N—((S)-1-(3-(4-Chloro-3-(methylsulfonamido)-1-(2,2,2-trifluoroethyl)-1H-indazol-7-yl)-6-(3-methyl-3-(methylsulfonyl)but-1-yn-1-yl)pyridin-2-yl)-2-(3,5-difluorophenyl)ethyl)-2-((3bS,4aR)-5,5-difluoro-3-(trifluoromethyl)-3b,4,4a,5-tetrahydro-1H-cyclopropa[3,4]cyclopenta[1,2-c]pyrazol-1-yl)acetamide] | about 9 times | about 16 times
2 | – | – | – | – | – | – | – | – | – | – | – | – | – | – | – | – | – | 2.99 nM | Cn1nc(NS(C)(=O)=O)c2c(Cl)ccc(-c3ccc(C#CC(C)(C)O)nc3[C@H](Cc3cc(F)cc(F)c3)NC(=O)Cn3nc(C(F)(F)F)c4c3C(F)(F)[C@@H]3C[C@H]43)c21 [Compound B, reference compound] | – | –
